Laboratory results reported in patent publication US12594292B2, “Antiviral prodrugs, intermediate-and long-acting formulations and methods” (priority 2022, dated 2026).

Columns and labels:
Calu-3 cells = assay: Cytotoxicity in Calu-3 cells, nuclei count or CellTiter-Glo (Example 6); settings: for select compounds up to 100 μM by CellTiter-Glo
Method: After which an equal volume of CellTiter-Glo reagent (Cat. #G7570, Promega, Madison, WI) was added, mixed and luminescence recorded on a Veritas Microplate Luminometer (Turner BioSystems) according to manufacturer recommendations.

SARS-CoV-2 [1] = assay: SARS-CoV-2 infection assay in TMPRSS2-Vero cells, nucleocapsid immunofluorescence (Example 6); format: cell-based; settings: MOI 0.01, 32 hours
HCoV-229E = format: cell-based, human Coronavirus 229E
SARS-CoV-2 [2] = assay: SARS-CoV-2 infection assay in Huh7.5 cells, nucleocapsid immunofluorescence (Example 6); format: cell-based; settings: MOI 0.1, 48 hours
Huh7.5 cells = assay: Cytotoxicity in Huh7.5 cells, nuclei count (Example 6); format: cell-based, human; settings: Huh7.5 cells; read-out: CC50
SARS-CoV-2 [3] = assay: SARS-CoV-2 infection assay in Calu-3 cells, nucleocapsid immunofluorescence (Example 6); settings: MOI 0.01, 44 hour
TMPRSS2-Vero cells = assay: Cytotoxicity in TMPRSS2-Vero cells, nuclei count (Example 6); format: cell-based; settings: TMPRSS2-Vero cells; read-out: CC50
HIV-1 = settings: HIV infected human PBMCs
Method: Antiviral activities were determined in HIV infected human PBMCs.

HFF cells = assay: Persistence of TFVpp in HFF cells after a 3 day exposure
Excerpt: HFF cells were exposed to 1 micromolar drug for 3 days. At days 0, 1, 2, 4, 7, 14, 21, and 28, cells were trypsinized, counted, and processed for LC/MS measurement of TFVpp. Data were expressed at ftg/cell. nm=not meaningful; ftg—gemtogram.

Compound | CC50 (Calu-3 cells) [nM] | EC50 (SARS-CoV-2 [1]) [nM] | EC90 (SARS-CoV-2 [1]) [nM] | EC50 (HCoV-229E) [nM] | EC90 (HCoV-229E) [nM] | EC50 (SARS-CoV-2 [2]) [nM] | EC90 (SARS-CoV-2 [2]) [nM] | CC50 (Huh7.5 cells) [nM] | CC50 (MRC-5 cells) [nM] | EC50 (SARS-CoV-2 [3]) [nM] | EC90 (SARS-CoV-2 [3]) [nM] | CC50 (TMPRSS2-Vero cells) [nM] | EC50 (HIV-1) | T1/2 of TFVpp (HFF cells) | Tmax of TFVpp (HFF cells) [h]
CCCCCCCCCCCCCCCCCCCCOP(=O)(O)OC[C@H]1O[C@](C#N)(c2ccc3c(N)ncnn23)[C@H](O)[C@@H]1O [Compound 4a, Eicosyl-phospho-RVn] | > 20000 | 1170 | 2180 | 910 | 1800 | 1410 | 4750 | > 20000 | > 50000 | 178 ± 35 | 1320 ± 566 | > 20000 | – | – | –
CCCCCCCCCCCCCCCCCCOCCOP(=O)(CO[C@H](C)Cn1cnc2c(N)nc(N)nc21)OCc1ccccc1 (stereo partly drawn) [ODE-Bn-PMPDAP, Octadecyloxyethyl benzyl 9-(R)-[(2-phosphonomethoxy)propyl]-2,6-diaminopurine] | – | – | – | – | – | – | – | – | – | – | – | – | active | – | –
CCCCCCCC/C=C\CCCCCCCCOCCOP(=O)(CO[C@H](C)Cn1cnc2c(N)nc(N)nc21)OCc1ccccc1 (stereo partly drawn) [OLE-Bn-PMPDAP, Oleyloxyethyl benzyl 9-(R)-[(2-phosphonomethoxy)propyl]-2,6-diaminopurine] | – | – | – | – | – | – | – | – | – | – | – | – | active | – | –
CCCCCCCCCCCCCCCCCCOC[C@H](COP1(=O)OC[C@H]2O[C@@](C#N)(c3ccc4c(N)ncnn34)[C@H](O)[C@@H]2O1)OCc1ccccc1 (stereo partly drawn) [Compound 18-eq, GS-441524-3′,5′-cyclic monophosphate, 1-O-octadecyl-2-O-benzyl-sn-glyceryl ester] | > 20000 | – | – | – | – | – | – | – | – | > 20000 | > 20000 | – | – | – | –
CCCCCCCC/C=C\CCCCCCCCOC[C@H](COP(=O)(O)OC[C@H]1O[C@@](C#N)(c2ccc3c(N)ncnn23)[C@H](O)[C@@H]1O)OCc1ccccc1 [Compound 15l, 1-O-Oleyl-2-O-benzyl-sn-glyceryl-phospho-RVn] | 79000 ± 6950 | 295 | 568 | 130 ± 29 | 260 ± 3.7 | 100 | 246 | > 20000 | > 50000 | 198 ± 77 | 294 ± 93 | > 20000 | – | – | –
CCCCCCCCCCCCCCOC[C@H](COP(=O)(O)OC[C@H]1O[C@@](C#N)(c2ccc3c(N)ncnn23)[C@H](O)[C@@H]1O)OCc1ccccc1 [Compound 15a, 1-O-Tetradecyl-2-O-benzyl-sn-glyceryl-phospho-RVn] | > 20000 | 901 | 1690 | 760 ± 340 | 3250 | 156 | 493 | > 20000 | > 50000 | 212 ± 25 | 536 ± 150 | > 20000 | – | – | –
CCCCCCCCCCCCCCCCCCOC[C@H](COP(=O)(OCc1ccccc1)OC[C@H]1O[C@@](C#N)(c2ccc3c(N)ncnn23)[C@H](O)[C@@H]1O)OCc1ccccc1 (stereo partly drawn) [Compound 17, 1-O-Octadecyl-2-O-benzyl-sn-glyceryl-benzyl-phospho-RVn] | > 20000 | 7440 | 15300 | 1500 ± 930 | 4270 ± 880 | 3540 | 16400 | > 20000 | > 50000 | 5320 ± 1390 | 10900 ± 5480 | > 20000 | – | – | –
2-(Octadecyloxy)ethyl benzyl phospho-RVn [Compound 6c] | – | – | – | 220 ± 56 | 440 ± 85 | – | – | – | > 50000 | – | – | – | – | – | –
CCCCCCCCCCCCCCCCCCOCCOP1(=O)OCC2OC(C#N)(c3ccc4c(N)ncnn34)C(O)C2O1 (stereo not drawn) [Compound 19-ax] | > 20000 | – | – | – | – | – | – | – | – | 8150 ± 8420 | > 20000 | – | – | – | –
CCCCCCCCCCCCCCCCCCOCCO[P@]1(=O)OC[C@H]2O[C@](C#N)(c3ccc4c(N)ncnn34)[C@H](O)[C@@H]2O1 [Compound 19-eq] | > 20000 | – | – | – | – | – | – | – | – | 2760 ± 808 | 19200 ± 12700 | – | – | – | –
CCCCCCCCCCCCCCCCCCOCC(COP(=O)(O)OC[C@H]1O[C@@](C#N)(c2ccc3c(N)ncnn23)[C@H](O)[C@@H]1O)OCc1ccccc1 (mixture of isomers) [Compound 15e, 1-O-octadecyl-2-O-benzyl-rac-glyceryl-phospho-RVn] | > 20000 | 242 | 642 | 210 ± 4 | 350 ± 6 | 163 | 514 | > 20000 | 30900 ± 7700 | 210 ± 62 | 763 ± 490 | > 20000 | – | – | –
CCCCCCCCCCCCCCCCCCOC[C@@H](COP(=O)(O)OC[C@H]1O[C@@](C#N)(c2ccc3c(N)ncnn23)[C@H](O)[C@@H]1O)OCc1ccccc1 [Compound 15n, 3-O-Octadecyl-2-O-benzyl-sn-glyceryl-1-phospho-RVn] | > 20000 | – | – | – | – | – | – | – | – | 163 ± 22 | 623 ± 183 | – | – | – | –
CCCCCCCCCCCCCCCCOCCCOP(=O)(CO[C@H](C)Cn1cnc2c(N)ncnc21)OCc1ccccc1 (stereo partly drawn) [HDP-Bn-TFV] | – | – | – | – | – | – | – | – | – | – | – | – | – | 1.8 | 0
CCCCCCCCCCCCCCCCCCOC[C@H](COP(=O)(O)OC[C@H]1O[C@@](C#N)(c2ccc3c(N)ncnn23)[C@H](O)[C@@H]1O)OCCCCCCCC [Compound 15f, 1-O-Octadecyl-2-O-octyl-sn-glyceryl-phospho-RVn] | > 20000 | 1330 | 2350 | 120 ± 57 | 290 ± 58 | 710 | 1710 | > 20000 | > 50000 | 410 ± 60 | 2310 ± 738 | > 20000 | – | – | –
CCCCCCCCCCCCCCCCCCOC[C@H](COP(=O)(O)OC[C@H]1O[C@@](C#N)(c2ccc3c(N)ncnn23)[C@H](O)[C@@H]1O)OCc1ccc(C(F)(F)F)cc1 [Compound 15p, 1-O-Octadecyl-2-O-(4-trifluoromethyl)benzyl-sn-glyceryl-phospho-RVn] | – | – | – | – | 330 ± 39 | – | – | – | 13900 ± 8800 | – | – | – | – | – | –
1-O-Octadecyl-2-O-(ethylcyclohexyl)-sn-glyceryl-phospho-RVn [Compound 15g] | > 20000 | – | – | – | – | – | – | – | – | 147 ± 32 | 1660 ± 798 | – | – | – | –
CCCCCCCCCCCCCCCCCCOC[C@H](COP(=O)(O)OC[C@H]1O[C@@](C#N)(c2ccc3c(N)ncnn23)[C@H](O)[C@@H]1O)OCc1cccc(F)c1 [Compound 15h, 1-O-Octadecyl-2-O-(3-fluoro-benzyl)-sn-glyceryl-phospho-RVn] | > 20000 | 270 | 629 | 1400 ± 58 | 2800 ± 40 | 182 | 444 | > 20000 | 22900 ± 100 | 216 ± 62 | 548 ± 368 | > 20000 | – | – | –
CCCCCCCCCCCCCCCCOC[C@H](COP(=O)(O)OC[C@H]1O[C@@](C#N)(c2ccc3c(N)ncnn23)[C@H](O)[C@@H]1O)OCc1ccccc1 [Compound 15b, 1-O-Hexadecyl-2-O-benzyl-sn-glyceryl-phospho-RVn] | 88200 ± 8890 | 395 | 810 | 560 ± 270 | 980 ± 380 | 130 | 309 | > 20000 | > 50000 | 101 ± 20 | 623 ± 272 | > 20000 | – | – | –
CCCCCCCCCCCCCCCCCCOC[C@H](COP(=O)(O)OC[C@H]1O[C@@](C#N)(c2ccc3c(N)ncnn23)[C@H](O)[C@@H]1O)OCc1cccc(C(F)(F)F)c1 [Compound 15o, 1-O-Octadecyl-2-O-(3-trifluoromethyl)benzyl-sn-glyceryl-phospho-RVn] | > 20000 | – | – | 160 ± 46 | 460 ± 270 | – | – | – | 16000 ± 2800 | 166 ± 68 | 278 ± 109 | – | – | – | –
